# Patent US12534438B2, “Cannabinoid derivative as a pharmaceutically active compound and method of preparation thereof” (priority 2020, dated 2026)
# Where two headings read alike, the source gives them in different places.
# Legend:
# [1] = test system: mouse model of generalised seizure (tonic hind limb extensor convulsions); experiment: Maximal electroshock seizure threshold (MEST) test in the mouse; conditions: 30 min post dose
# Experimental: The efficacy of the cannabinoid derivative according to formula (I) was tested in a mouse model of generalised seizure, the maximal electroshock seizure threshold (MEST) test.
# The maximal electroshock seizure threshold (MEST) test is widely utilized preclinically to evaluate pro- or anti-convulsant properties of test compounds (Loscher et al., 1991).
# In the MEST test the ability of a drug to alter the seizure threshold current required to induce hind limb tonic extensor convulsions is measured according to an “up and down” method of shock titration (Kimball et al., 1957). An increase in seizure threshold is indicative of anti-convulsant effect.
# The ability of a test compound to alter the stimulus intensity, expressed as current (mA), required to induce the presence of tonic hind limb extensor convulsions, is assessed in the MEST.
# Naïve mice were acclimatised to the procedure room in their home cages for up to 7 days, with food and water available ad libitum.
# All animals were weighed at the beginning of the study and randomly assigned to treatment groups based on a mean distribution of body weight across groups.
# The first animal within a treatment group was given a shock at the expected or estimated CC50 current. For subsequent animals, the current was lowered or raised depending on the convulsions outcome from the preceding animal, in intervals of 5 mA.
# Data generated from each treatment group were used to calculate the CC50±SEM values for the treatment group.
# Vehicle: (5% ethanol, 10% solutol, 85% Saline) was prepared as follows: 1 mL of ethanol, 2 mL of solutol were warmed to 60° C., in 17 mL of saline (1:2:17).
# The test compound, described herein as compound 1, is as shown as formula (I). Test compound was administered at 2, 20 and 200 mg/kg (i.p.) in a 1:2:17 ethanol:solutol:0.9% saline formulation.
# The data for each treatment group were recorded as the number of +'s and 0's at each current level employed and this information is then used to calculate the CC50 value (current required for 50% of the animals to show seizure behaviour)±standard error.
# Test compound effects were also calculated as percentage change in CC50 from the vehicle control group.
# Significant difference between drug-treated animals and controls were assessed according to Litchfield and Wilcoxon (1949).
# [2] = Plasma pharmacokinetics following oral dose administration to male Wistar Han rats; type: in vivo; conditions: rat, oral gavage; for half-life / AUC(0-inf) / AUC(0-t) / Cmax / Tmax: plasma
# Experimental: The plasma pharmacokinetics of compound 1 was assessed following oral dose administration to male Wistar Han Rats.
# The Wistar Han Rat was chosen as the animal model for this study as it is an accepted rodent species for preclinical toxicity testing by regulatory agencies. Animals were socially housed (up to 3 animals of the same group) in polycarbonate cages containing appropriate bedding equipped with water bottles and may be provided with items such as devices for hiding in, paper and/or objects for chewing, unless contraindicated by study procedures. Pelleted rodent diet were provided ad libitum throughout the study, except during designated procedures.
# The 9 male animals were 8 to 10 weeks old at initiation of dosing.
# Vehicle: 1% Ethanol/12% Kolliphor HS-15/87% Saline (w/w/v).
# Dose formulation was prepared as follows: test item was dissolved in ethanol. Kolliphor HS-15 and saline was heated separately to 60° C., and the required amount of heated Kolliphor HS-15 added to the test item/ethanol solution. The mixture was stirred at until homogenous. Hot saline was added to the mixture to meet dose level requirements, and stirred at 60° C. until a homogenous solution. Prior to release, the formulations were allowed to cool to 40° C. Subsequently, the formulations were stored at room temperature until dosing.
# Groups 1, 2 and 3: The test item was administered to the appropriate animals by oral gavage. The dose was given using a plastic feeding tube.
# PK Sample Collection: From animals in Group 1 to 3 blood was collected according to the PK sample collection table (outlined in Table 3). Approximately 0.2 mL blood samples was taken from the jugular vein and collected into tubes containing K2 EDTA as anti-coagulant and stored on ice.
# Sample Processing and Storage: Whole blood was processed to plasma by centrifugation (3000 g for 10 minutes at 5° C.) within 1 hour of collection. Plasma samples were transferred into labelled polypropylene tubes and stored at <−75° C. until shipment.
# [3] = male, Wistar Han, in vivo, po, 15 mg/kg, 15 mg/kg (measured dose 15 mg/kg)
# [4] = male, Wistar Han, in vivo, po, 45 mg/kg (measured dose 101 mg/kg)
# [5] = male, Wistar Han, in vivo, po, 150 mg/kg (measured dose 204 mg/kg)
compound,measurement,setting,value
"C=C(C)[C@@H]1CCC(C)=C[C@H]1c1c(O)cc(-c2cnn(C)c2)cc1O [Compound 1, (1′R,2′R)-5′-methyl-4-(1-methyl-1H-pyrazol-4-yl)-2′-(prop-1-en-2-yl)-1′,2′,3′,4′-tetrahydro-[1,1′-biphenyl]-2,6-diol]",CC50 +/- SEM,[1]; 2 mg/kg i.p.,30.8 ± 1.0 mA
same,CC50 +/- SEM,[1]; 20 mg/kg i.p.,52.5 ± 1.3 mA
same,CC50 +/- SEM,[1]; 200 mg/kg i.p.,197.5 ± 20.4 mA
same,% change from vehicle,"[1]; CC50, 2 mg/kg i.p.",27%
same,% change from vehicle,"[1]; CC50, 20 mg/kg i.p.",116%
same,% change from vehicle,"[1]; CC50, 200 mg/kg i.p.",712%
same,half-life,"[2]; male, Wistar Han, in vivo, 15 mg/kg (measured dose 15 mg/kg)",3.3 h
same,half-life,"[2]; male, Wistar Han, in vivo, 45 mg/kg (measured dose 101 mg/kg)",3.6 h
same,half-life,"[2]; male, Wistar Han, in vivo, 150 mg/kg (measured dose 204 mg/kg)",4.3 h
same,AUC(0-inf),[2]; [3],5330 ng·h/mL
same,AUC(0-t),[2]; [3],4250 ng·h/mL
same,Cmax,[2]; [3],1130 ng/mL
same,Tmax,[2]; [3],1 h
same,bioavailability,"[2]; male, Wistar Han, in vivo, po, 15 mg/kg, 15 mg/kg (measured dose 15 mg/kg), read-out: Bioavailability",69.6%
same,AUC(0-inf),[2]; [4],48300 ng·h/mL
same,AUC(0-t),[2]; [4],47900 ng·h/mL
same,Cmax,[2]; [4],4010 ng/mL
same,Tmax,[2]; [4],1 h
same,bioavailability,"[2]; male, Wistar Han, in vivo, po, 45 mg/kg (measured dose 101 mg/kg), read-out: Bioavailability",96.4%
same,AUC(0-inf),[2]; [5],105000 ng·h/mL
same,AUC(0-t),[2]; [5],101000 ng·h/mL
same,Cmax,[2]; [5],6730 ng/mL
same,Tmax,[2]; [5],8 h
same,bioavailability,"[2]; male, Wistar Han, in vivo, po, 150 mg/kg (measured dose 204 mg/kg), read-out: Bioavailability",107%
same,bioavailability,"[2]; across concentrations (15, 45, 150 mg/kg)",high
"CN1C(=O)CN=C(c2ccccc2)c2cc(Cl)ccc21 [Diazepam, diazepam, reference compound]",% change from vehicle,"[1]; CC50, diazepam 2.5 mg/kg i.p.",223%
